We go through 4 molecules from patent US10219528B2 (Zinpro Corporation, priority 2016, dated 2019).

Data set [1] is described as follows: Solubility test of folate precipitates suspended in water at pH 7.0, filtered, insoluble solid weighed. The format is physicochemical. The source says: In the parent application is was noticed that when soluble metal salts were mixed with folic acid there would be a precipitate forming after the addition of the metal salt. This precipitate was isolated and its solubility measured. According to the following procedure: The precipitates were suspended in water and the pH was adjusted to 7.0 with dilute HCl. […] The solids were dried and weighed to determine the mass of insoluble product. Very similar molar amounts of folic acid are used in this procedure.

The nature of data set [2]: Sheep serum folic acid concentrations after feeding test articles. The source says: The animals were separated into groups and housed in a barn with access to a pasture. The dosing regime was as follows. […] The sheep were fed the test feeds for fourteen (14) days.
Example 22 is a sheep study using the protocol of Example 20 but with the Mn and iron mixtures of Example 5 and 7, respectively. […] In this test the ewes were fed the concentrate metal folate mixture dried without any carrier but mixed on ground corn for feeding.
The liquid mixtures were then sprayed directly on ground corn.

The mark [3] stands for this setting: suspended in water at pH 7.0, stirred, filtered, solid dried and weighed.

The molecule `Nc1nc2ncc(CNc3ccc(C(=O)N[C@@H](CCC(=O)O)C(=O)O)cc3)nc2c(=O)[nH]1` [Folic Acid, folic acid, reference compound] came in with an Insoluble % in data set [1] (15 min, pH 7) of 0.33%. Besides, the “solubility at pH of 7” value in data set [1] (pH 7) is given as “soluble”.
Regarding Iron folate, the “Insoluble Mass” value in data set [1] (suspended in 100 mL water, pH adjusted to 7.0, stirred, filtered, solid dried and weighed, about 3 g folate equivalents (6.8 mmols)) was 3.74 g. The Insoluble % in data set [1] (setting [3]) worked out at 96%; in data set [1] (suspended in water at pH 7.0, stirred, filtered, solid dried and weighed, listed as Iron folate), 96%.
For the molecule Zinc folate, the Insoluble % in data set [1] (setting [3]) is on record as 99%; in data set [1] (suspended in water at pH 7.0, stirred, filtered, solid dried and weighed, listed as Zinc folate) it was 99%.
For the molecule Zinc Folate Mixture [Example 1], the “serum folic acid concentrations” value in data set [2] (30 mg folic acid equivalent per head per day mixed with ground corn, 14 days, pre vs post treatment (FIGS. 1-4), mean or median) is “increased the greatest”. Moreover, in data set [2] (comparison with folic acid alone), the “blood serum levels of folic acid compared to folic acid alone” value is “performed better than folic acid alone”.
